From patent US20120171123A1, “USES AND COMPOSITIONS FOR TREATMENT OF RHEUMATOID ARTHRITIS” (priority 2006, published 2012)
Where two headings read alike, the source gives them in different places. Marks after values point to notes of the source that are not given here.

Assays:
[1] = system: MTX-naïve adult patients with early RA (<3 years); assay: Study J: SF-36 (domains, PCS, MCS) with criteria- and content-based interpretation; type: in vivo, human; parameters: key to mean SF-36 PCS score / SF-36 Role-Physical score / SF-36 Bodily Pain score / SF-36 General Health score / SF-36 Vitality score / SF-36 Social Functioning score / SF-36 Role-Emotional score / SF-36 Mental Health score / SF-36 PCS score / SF-36 MCS score / SF-36 Physical Functioning score: scale 0-100, higher = better health-related quality of life; conditions: for SF-36 Bodily Pain score / SF-36 General Health score / SF-36 MCS score / SF-36 Mental Health score / SF-36 PCS score / SF-36 Physical Functioning score / SF-36 Role-Emotional score / SF-36 Role-Physical score / SF-36 Social Functioning score / SF-36 Vitality score: LOCF
Description: Study J was a 2-year, double-blind, active comparator-controlled, Phase III study conducted at many sites worldwide.
The SF-36 was used to assess the 8 domains of HRQOL—physical functioning, role-physical, bodily pain, general health, vitality, social functioning, role-emotional, and mental health. These 8 domains were aggregated into Physical Component Summary (PCS) and Mental Component Summary (MCS) scores. The SF-36 has a scale of 0-100, with higher scores indicating better health-related quality of life.
Minimum clinically important differences (MCID) are defined as improvements of 5-10 points in the individual domains scores and 2.5-5 points in the PCS and MCS^5.
All HRQOL domains were measured at baseline, and after 12, 26, 42, 52, 76, and 104 weeks of therapy. In this analysis, mean scores and mean changes in each HRQOL domain are reported, as well as the PCS and MCS, at Weeks 12 and 104. Criteria-based interpretation was used to understand the meaning of differences in PCS scores for work loss and resource use and content-based interpretation for specific SF-36 items.^4
Study J was a 2-year, double-blind, active comparator-controlled, Phase III study conducted at 149 sites in North America, Europe, and Australia. […] The SF-36 was used to assess the 8 domains of HRQOL—physical functioning, role-physical, bodily pain, general health, vitality, social functioning, role-emotional, and mental health. These 8 domains were aggregated into Physical Component Summary (PCS) and Mental Component Summary (MCS) scores. The SF-36 has a scale of 0-100, with higher scores indicating better health-related quality of life. Minimum clinically important differences (MCID) are defined as improvements of 5-10 points in the individual domains scores and 2.5-5 points in the PCS and MCS (Kosinski M, et al. Arthritis Rheum 2000:43:1478-87). All HRQOL domains were measured at baseline, and after 12, 26, 42, 52, 76, and 104 weeks of therapy. In this analysis, we report mean scores and mean changes in each HRQOL domain, as well as the PCS and MCS, at Weeks 12 and 104. We used criteria-based interpretation to understand the meaning of differences in PCS scores for work loss and resource use and content-based interpretation for specific SF-36 items (Weinblatt M E, et al. Arthritis Rheum 2003; 48:35-45).

[2] = system: patients with moderate to severe rheumatoid arthritis; assay: Study C: medically relevant adverse events; type: in vivo, human
Description: The Canadian Adalimumab Clinical Trial (Study C) was an open-label, multi-center, Phase IIIb study conducted in Canada. […] Efficacy and safety were assessed at baseline, 4, 8, and 12 weeks. Efficacy assessments included tender joint count (TJC 0-28), swollen joint count (SJC 0-28), Disease Activity Score 28 (DAS28), Health Assessment Questionnaire (HAQ), and EULAR response. […] The sample size for each outcome variable is based on the data available at the time of the analysis. The data from this preliminary analysis were compared with the Week 12 data from Study A (N=2008).

[3] = system: RA patients treated with adalimumab in clinical trials in North America and Europe
Description: The rate of TB was calculated for the period before screening was initiated (primarily Phase I trials) and the period after screening was implemented. The screening program consisted of a clinical interview, a tuberculin skin test, and, in most patients, a chest X-ray (CXR). The definition of PPD-positive depended on local country-specific guidelines. For those people who were PPD-positive, or for whom the investigator felt the risk of TB reactivation was high, INH was given for prophylaxis.
The methodology differed among protocols. For instance, in Europe and Australia, it was initially used CXR only, and in later studies, CXR and purified protein derivative skin test (PPD) were both used. By contrast, in US and Canada, CXR and PPD were both used.

[4] = Baseline, percentages based on general US population norms
[5] = Week 104, percentages based on general US population norms
[6] = US/Canada and Europe RA trials through December 2004

CN(Cc1cnc2nc(N)nc(N)c2n1)c1ccc(C(=O)N[C@@H](CCC(=O)O)C(=O)O)cc1 [mtx alone, methotrexate]
SF-36 Bodily Pain score ([1]; Baseline): 29.9
SF-36 General Health score ([1]; Baseline): 49.7
SF-36 MCS score ([1]; Baseline): 43.5
SF-36 Mental Health score ([1]; Baseline): 62.1
SF-36 PCS score ([1]; Baseline): 32.2
SF-36 Physical Functioning score ([1]; Baseline): 38.9
SF-36 Role-Emotional score ([1]; Baseline): 41.1
SF-36 Role-Physical score ([1]; Baseline): 16.4
SF-36 Social Functioning score ([1]; Baseline): 56.5
SF-36 Vitality score ([1]; Baseline): 37.1
Interpretation of SF-36 PCS, Content-Based: Climb stairs [1, 4]: 66.4%
Interpretation of SF-36 PCS, Content-Based: Difficulty working [1, 4]: 88.1%
Interpretation of SF-36 PCS, Content-Based: Have energy [1, 4]: 9.7%
Interpretation of SF-36 PCS, Content-Based: Time off work [1, 4]: 64.8%
Interpretation of SF-36 PCS, Content-Based: Walk on block [1, 4]: 44.4%
Interpretation of SF-36 PCS, criteria-based: Hospitalized [1, 4]: 10.7%
Interpretation of SF-36 PCS, criteria-based: Job loss [1, 4]: 30.3%
Interpretation of SF-36 PCS, criteria-based: MD visit [1, 4]: 47.7%
Interpretation of SF-36 PCS, criteria-based: Not work [1, 4]: 44.1%
SF-36 Bodily Pain score ([1]; Week 12): 51.0
SF-36 General Health score ([1]; Week 12): 58.9
SF-36 MCS score ([1]; Week 12): 49.0
SF-36 Mental Health score ([1]; Week 12): 71.2
SF-36 PCS score ([1]; Week 12): 38.3
SF-36 Physical Functioning score ([1]; Week 12): 51.1
SF-36 Role-Emotional score ([1]; Week 12): 60.5
SF-36 Role-Physical score ([1]; Week 12): 40.4
SF-36 Social Functioning score ([1]; Week 12): 72.0
SF-36 Vitality score ([1]; Week 12): 51.6
SF-36 Bodily Pain score ([1]; Week 104): 57.0
SF-36 General Health score ([1]; Week 104): 68.3
SF-36 MCS score ([1]; Week 104): 49.9
SF-36 Mental Health score ([1]; Week 104): 72.9
SF-36 PCS score ([1]; Week 104): 41.2
SF-36 Physical Functioning score ([1]; Week 104): 58.9
SF-36 Role-Emotional score ([1]; Week 104): 64.5
SF-36 Role-Physical score ([1]; Week 104): 48.6
SF-36 Social Functioning score ([1]; Week 104): 75.5
SF-36 Vitality score ([1]; Week 104): 56.9
Interpretation of SF-36 PCS, Content-Based: Climb stairs [1, 5]: 30.7%
Interpretation of SF-36 PCS, Content-Based: Difficulty working [1, 5]: 51.2%
Interpretation of SF-36 PCS, Content-Based: Have energy [1, 5]: 26.6%
Interpretation of SF-36 PCS, Content-Based: Time off work [1, 5]: 29.8%
Interpretation of SF-36 PCS, Content-Based: Walk on block [1, 5]: 21.4%
Interpretation of SF-36 PCS, content-based: Climb stairs [1, 5]: 30.7%
Interpretation of SF-36 PCS, content-based: Difficulty working [1, 5]: 61.2%
Interpretation of SF-36 PCS, content-based: Have energy [1, 5]: 26.6%
Interpretation of SF-36 PCS, content-based: Time off work [1, 5]: 29.8%
Interpretation of SF-36 PCS, content-based: Walk on block [1, 5]: 21.4%
Interpretation of SF-36 PCS, criteria-based: Hospitalized [1, 5]: 7.7%
Interpretation of SF-36 PCS, criteria-based: Job loss [1, 5]: 20.8%
Interpretation of SF-36 PCS, criteria-based: MD visit [1, 5]: 34.6%
Interpretation of SF-36 PCS, criteria-based: Not work [1, 5]: 24.2%
mean SF-36 PCS score ([1]; week 12 (baseline 31.7 combination, 32.2 MTX)): 38.3

adalimumab: human anti-TNF mAb (HUMIRA, Abbott Laboratories), described in U.S. Pat. No. 6,090,382 as D2E7
Infections: Influenza, number ([2]; Study C (n=879)): Influenza (1)
Infections: Pneumonia, number ([2]; Study C (n=879)): Pneumonia (3)
Infections: Post-operative infections, number ([2]; Study C (n=879)): infections (3)
Infections: Pyelonephritis, number ([2]; Study C (n=879)): Pyelonephritis (1)
Infections: Sinusitis, number ([2]; Study C (n=879)): Sinusitis (1)
Medically relevant adverse events: Congestive heart failure, % ([2]; Study C (n=879)): 0.1%
Medically relevant adverse events: Congestive heart failure, number ([2]; Study C (n=879)): 1
Infections: Atypical infection (nodules), number ([2]; in vivo): (nodules) (1)
Infections: Infected prosthesis, number ([2]; in vivo): Infected prosthesis (1)
Medically relevant adverse events: Infections, % ([2]; in vivo): 1.3%
Medically relevant adverse events: Infections, number ([2]; in vivo): 11
Medically relevant adverse events: Malignancies, % ([2]; in vivo): 0.2%
Medically relevant adverse events: Malignancies, number ([2]; in vivo): 2
TB cases: Culture positive [3, 6]: 62%
TB cases: Extrapulmonary [3, 6]: 65%
TB: Total Cases [3, 6]: 34
TB cases: Median months from treatment to diagnosis (range) ([3]; US/Canada and Europe RA trials through December 2004, range 1-54): 7.2 months (1-54)
cases of TB ([3]; after screening): 27 cases
rate of TB ([3]; after screening, 14,010 pt-yrs): 0.0019 /pt-yr
rate of TB ([3]; after screening, Europe): 0.0027
rate of TB ([3]; after screening, North America): 0.0008
cases of TB ([3]; before screening): 7 cases
rate of TB ([3]; before screening, 534 pt-yrs): 0.013 /pt-yrs
reduction in the rate of developing TB with screening ([3]; human, in vivo): 85%
TB cases: Outcome Resolved ([3]; of 34 cases, one patient died of unrelated causes): 32**
median time to the development of TB ([3]; range 14-1636): 167 days
